# Laboratory results taken from article doi:10.1101/2025.01.30.635627v1 (biorxiv, 2025).
# Legend:
# EEF1A2 = target: T1, EEF1A2 (Homo sapiens, UniProt Q05639); experiment: decryptC competitive reactive cysteine profiling in intact cells, LC-MS/MS; type: cell-based; conditions: covalent; C31; […] h incubation; range over MiaPaCa-2, NCI-H23 and ASPC1 cells
# T1 sequence (Q05639 2-463): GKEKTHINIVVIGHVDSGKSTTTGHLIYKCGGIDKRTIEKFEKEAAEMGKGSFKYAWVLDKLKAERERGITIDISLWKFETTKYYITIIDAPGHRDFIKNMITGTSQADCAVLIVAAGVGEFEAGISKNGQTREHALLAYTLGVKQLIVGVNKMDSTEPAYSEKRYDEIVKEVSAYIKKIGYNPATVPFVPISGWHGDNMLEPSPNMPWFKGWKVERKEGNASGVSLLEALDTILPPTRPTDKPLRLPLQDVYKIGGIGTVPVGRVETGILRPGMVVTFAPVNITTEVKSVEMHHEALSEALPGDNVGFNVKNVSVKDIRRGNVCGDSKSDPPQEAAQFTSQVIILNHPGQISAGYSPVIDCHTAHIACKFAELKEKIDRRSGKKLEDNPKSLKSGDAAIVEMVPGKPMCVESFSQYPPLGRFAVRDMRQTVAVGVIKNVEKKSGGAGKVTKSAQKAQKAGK
# GAK = target: T2, GAK (Homo sapiens, UniProt O14976); experiment: Kinobead selectivity profiling; type: biochemical; conditions: read-out: K ^app; apparent value; off-target of ERK inhibitor
# T2 sequence (O14976 2-1311): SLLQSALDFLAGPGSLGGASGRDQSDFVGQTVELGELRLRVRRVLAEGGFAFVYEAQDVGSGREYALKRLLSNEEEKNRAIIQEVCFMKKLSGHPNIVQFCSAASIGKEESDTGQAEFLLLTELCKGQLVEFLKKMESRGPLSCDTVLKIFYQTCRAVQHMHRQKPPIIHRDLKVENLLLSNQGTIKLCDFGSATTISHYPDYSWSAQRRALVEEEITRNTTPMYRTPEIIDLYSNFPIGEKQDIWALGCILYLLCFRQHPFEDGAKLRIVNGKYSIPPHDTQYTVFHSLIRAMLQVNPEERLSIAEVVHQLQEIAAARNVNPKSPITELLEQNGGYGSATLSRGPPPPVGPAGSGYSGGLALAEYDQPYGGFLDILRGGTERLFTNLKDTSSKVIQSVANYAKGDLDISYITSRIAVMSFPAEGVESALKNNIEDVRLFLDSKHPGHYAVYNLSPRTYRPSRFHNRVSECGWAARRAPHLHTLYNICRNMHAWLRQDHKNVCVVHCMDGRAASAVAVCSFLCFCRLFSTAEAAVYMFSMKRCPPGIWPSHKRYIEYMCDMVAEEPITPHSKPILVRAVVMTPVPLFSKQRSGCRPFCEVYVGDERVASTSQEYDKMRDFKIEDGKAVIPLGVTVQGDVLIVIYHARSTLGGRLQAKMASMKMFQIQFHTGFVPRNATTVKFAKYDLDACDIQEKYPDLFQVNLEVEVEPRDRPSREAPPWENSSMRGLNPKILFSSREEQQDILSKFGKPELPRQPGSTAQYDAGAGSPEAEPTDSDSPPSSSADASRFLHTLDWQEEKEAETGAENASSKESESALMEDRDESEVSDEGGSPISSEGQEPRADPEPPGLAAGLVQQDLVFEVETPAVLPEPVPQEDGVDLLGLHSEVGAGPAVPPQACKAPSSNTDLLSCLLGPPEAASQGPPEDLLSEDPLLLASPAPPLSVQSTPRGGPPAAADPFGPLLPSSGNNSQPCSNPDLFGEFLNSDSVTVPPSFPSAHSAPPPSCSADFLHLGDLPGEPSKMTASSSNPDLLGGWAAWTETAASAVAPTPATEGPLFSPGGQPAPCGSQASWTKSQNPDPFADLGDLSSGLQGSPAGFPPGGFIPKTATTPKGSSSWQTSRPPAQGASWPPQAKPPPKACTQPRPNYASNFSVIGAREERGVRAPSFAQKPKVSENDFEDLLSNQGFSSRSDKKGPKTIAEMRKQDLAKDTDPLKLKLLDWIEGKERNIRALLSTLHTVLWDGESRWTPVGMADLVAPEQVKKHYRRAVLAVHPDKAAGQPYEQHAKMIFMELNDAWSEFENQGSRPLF
# AAK1 = AAK1 (Homo sapiens, UniProt Q2M2I8); experiment: Kinobead selectivity profiling; type: biochemical; conditions: read-out: K ^app; apparent value; off-target of ERK inhibitor
# Chain of AAK1 (Q2M2I8 whole entry): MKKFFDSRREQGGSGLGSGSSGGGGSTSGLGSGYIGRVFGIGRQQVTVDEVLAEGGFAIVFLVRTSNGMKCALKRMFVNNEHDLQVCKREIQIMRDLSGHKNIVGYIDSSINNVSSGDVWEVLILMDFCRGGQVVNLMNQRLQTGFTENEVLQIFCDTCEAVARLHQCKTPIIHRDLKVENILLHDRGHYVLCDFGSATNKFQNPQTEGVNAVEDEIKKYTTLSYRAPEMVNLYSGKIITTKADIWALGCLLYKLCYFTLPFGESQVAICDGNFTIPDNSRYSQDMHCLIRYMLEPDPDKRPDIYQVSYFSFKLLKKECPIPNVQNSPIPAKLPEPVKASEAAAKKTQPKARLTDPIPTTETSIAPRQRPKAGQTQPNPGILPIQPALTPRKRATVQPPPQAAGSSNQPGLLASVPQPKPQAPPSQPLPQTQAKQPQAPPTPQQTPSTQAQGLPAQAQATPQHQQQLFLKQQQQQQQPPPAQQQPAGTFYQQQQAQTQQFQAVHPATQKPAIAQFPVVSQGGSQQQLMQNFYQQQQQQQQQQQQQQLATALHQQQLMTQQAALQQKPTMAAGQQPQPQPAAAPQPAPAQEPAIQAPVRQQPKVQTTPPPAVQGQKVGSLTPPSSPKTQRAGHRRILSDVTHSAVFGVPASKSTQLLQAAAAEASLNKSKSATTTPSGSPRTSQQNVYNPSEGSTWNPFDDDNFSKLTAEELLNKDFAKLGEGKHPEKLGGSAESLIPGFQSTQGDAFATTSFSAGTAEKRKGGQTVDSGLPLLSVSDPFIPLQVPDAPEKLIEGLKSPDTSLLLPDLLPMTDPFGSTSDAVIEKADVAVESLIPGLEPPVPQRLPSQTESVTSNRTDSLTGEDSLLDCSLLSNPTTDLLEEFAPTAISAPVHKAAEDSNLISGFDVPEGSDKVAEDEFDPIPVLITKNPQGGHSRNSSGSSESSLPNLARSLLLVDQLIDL
EC50 (EEF1A2),Kd (GAK),Kd (AAK1),Compound
1 to 3 µM,,,C=C(F)C(=O)N1CCN(c2nc(OC[C@@H]3CCCN3C)nc3c2CCN(c2cccc4cccc(Cl)c24)C3)C[C@@H]1CC#N [Adagrasib]
,0.155 µM,0.011 µM,Cn1nccc1Nc1nccc(-c2cc3c(s2)C(C)(C)N(CCN2CCOCC2)C3=O)n1 [Temuterkib]
